Experiment [1] relates to Efflux type multidrug resistant wheat Septoria leaf blotch fungus (Zymoseptoria tritici), fungus strain St 106-6. Nature of the experiment: Control test against efflux type multidrug resistant wheat Septoria leaf blotch fungus (titer plate growth, absorbance at 600 nm). The class given is cell-based. How it is done: (§1) Control test against Efflux type multidrug resistant wheat Septoria leaf blotch fungus (Zymoseptoria tritici)
(§2) Each of the present compound (1) and tolnaftrate was diluted with dimethyl sulfoxide to a prescribed concentration thereof, respectively. Each of the chemical solutions comprising the respective testing compound was dispensed into a titer plate (with 96 wells) in the amount of 1 μL. […] The plate was cultured at 18° C. for 4 days, thereby allowing each wheat Septoria leaf blotch fungus to undergo proliferation, and the absorbance at 600 nm of each well of the titer plate was then measured to determine a degree of growth of the wheat Septoria leaf blotch fungus (treated group). […]
(§3) The efficacy was calculated from the degree of the growth by the below-mentioned “Equation 1”, and then each EC50 value of the testing compound, respectively against the efflux type multidrug resistant fungus strains and the wild-type fungus strain was calculated. Next, as shown in the below-mentioned “Equation 2”, an EC50 value ratio was calculated by dividing an EC50 value against the efflux type multidrug resistant fungus strains by an EC50 value against the wild-type fungus strain. […]

Experiment [2] concerns efflux type multidrug resistant fungus strain 3: ABC transporter and MFS transporter-overexpressing fungus strain (Bc-103) of grapes gray mold fungus (Botrytis …). As to the kind of experiment: Control test against efflux type multidrug resistant grapes gray mold fungus, strain 3. The format is cell-based, Botrytis cinerea. How it is done: (§4) Control Test Against Efflux Type Multidrug Resistant Grapes Gray Mold Fungus (Botrytis cinerea)
(§5) Each of the present compound (1), fludioxonil and tolnaftrate was diluted with dimethyl sulfoxide to a prescribed concentration thereof, respectively. Each of the chemical solutions comprising the respective testing compound was dispensed into a titer plate (with 96 wells) in the amount of 1 μL. […] The plate was cultured at 18° C. for 2 days, thereby allowing each grapes gray mold fungus to undergo proliferation, and the absorbance at 600 nm of each well of the titer plate was then measured to determine a degree of growth of each of the grapes gray mold fungi (treated group). […]
(§6) The efficacy was calculated from the degree of the growth by the below-mentioned “Equation 1”, and then each EC50 value of the testing compound, respectively against the efflux type multidrug resistant fungus strains and the wild-type fungus strain was calculated. Also, an EC50 value ratio was calculated by the above-mentioned “Equation 2”.

Experiment [3] concerns wheat Septoria leaf blotch fungus (Zymoseptoria tritici) wild-type fungus strain. As to the kind of experiment: Control test against wheat Septoria leaf blotch fungus, wild-type fungus strain (titer plate growth, absorbance at 600 nm). The class given is cell-based. As to conditions: PDB culture media, 18° C., 4 days. How it is done: as §1, §2, §3
Experiment [4] deals with efflux type multidrug resistant fungus strain 2: MFS transporter-overexpressing fungus strain (Bc-107) of grapes gray mold fungus (Botrytis cinerea). Nature of the experiment: Control test against efflux type multidrug resistant grapes gray mold fungus, strain 2. The format is cell-based. How it is done:
as §4, §5, §6

In experiment [5] the test system is efflux type multidrug resistant fungus strain 1: ABC transporter-overexpressing fungus strain (Bc-56) of grapes gray mold fungus (Botrytis cinerea). As to the kind of experiment: Control test against efflux type multidrug resistant grapes gray mold fungus, strain 1. The format is cell-based. As for the experimental part: as §4, §5, §6
Experiment [6] concerns grapes gray mold fungus (Botrytis cinerea) wild-type fungus strain. Nature of the experiment: Control test against grapes gray mold fungus, wild-type fungus strain (titer plate growth, absorbance at 600 nm). The format is cell-based. As to conditions: PDB culture media, 18° C., 2 days. How it is done: as §4, §5, §6

With `Cn1c(=O)c2sc3c(=O)n(C)c(=O)c3sc2c1=O` [Present compound (1)], the EC50 value ratio in experiment [1] (EC50 against efflux type multidrug resistant fungus strain / EC50 against wild-type fungus strain, Zymoseptoria tritici) amounted to 1.1. Besides, in experiment [1] (Zymoseptoria tritici St 106-6, PDB culture media, 18° C., 4 days), the “EC50 value, Efflux type multidrug resistant fungus strain” value was determined as 1.3 ppm. In experiment [2] (Botrytis cinerea Bc-103 (ABC and MFS transporter-overexpressing), 18° C., 2 days), the “EC50 value, Efflux type multidrug resistant fungus strain 3” value is recorded as 2.4 ppm. For the same molecule, the “EC50 value ratio 3” value in experiment [2] (EC50 against efflux type multidrug resistant strain 3 / EC50 against wild-type, Botrytis cinerea) is listed as 1.3. The entries for the “EC50 value, Wild-type fungus strain” value in experiment [3] and in experiment [6] were 1.2 ppm and 1.9 ppm, respectively. Further, the “EC50 value, Efflux type multidrug resistant fungus strain 2” value in experiment [4] (Botrytis cinerea Bc-107 (MFS transporter-overexpressing), 18° C., 2 days) is listed as 1.7 ppm. The “EC50 value ratio 2” value in experiment [4] (EC50 against efflux type multidrug resistant strain 2 / EC50 against wild-type, Botrytis cinerea) came to 0.89. Moreover, the “EC50 value, Efflux type multidrug resistant fungus strain 1” value in experiment [5] (Botrytis cinerea Bc-56 (ABC transporter-overexpressing), 18° C., 2 days) is listed as 1.7 ppm. In addition, the “EC50 value ratio 1” value in experiment [5] (EC50 against efflux type multidrug resistant strain 1 / EC50 against wild-type, Botrytis cinerea) stood at 0.89.

For the origin of these results see patent publication US11116219B2, “Method for controlling discharge-type multidrug resistant plant diseases” (SUMITOMO CHEMICAL COMPANY, LIMITED, priority 2017, dated 2021).
